Tests used:
[1] = molecular target: T1, MMP-9 (Homo sapiens, UniProt P14780); experiment: MMP-9 Colorimetric Drug Discovery Kit (Biomol): MMP-9 activity reduction by dressings; type: biochemical; details: compared to control samples with no MMP-9 inhibitor activity
T1 construct: purchased Biomol
Source text: A National Diagnostics Hydrogen Peroxide Assay Kit was used to evaluate the antioxidant properties of foam pads and the formulated coated foam pads containing alpha-lipoic acid. Foam pads coated only with gelatin were used as controls. FIG. 7 is a graph showing the percentage of hydrogen peroxide reduction due to reaction with alpha-lipoic acid. An MMP-9 Colorimetric Drug Discovery Kit (Biomol) was used to evaluate the MMP inhibiting/inactivating ability of the formulated foam pads containing alpha-lipoic acid/gelatin (ALA) and gelatin alone (GF GEL). The controls were uncoated foam pads and known potent MMP inactivating drug, NNGH (C13H20N2O5S, available from Enzo® Life Sciences). […] FIG. 9 is a graph showing the release of alpha-lipoic acid from the coating on the foam pads. The coating delivers approximately 70% of the total alpha-lipoic acid within the first day, while the remaining alpha-lipoic acid is released during the next 2-3 days.
Coated polyurethane foam (GranuFoam®) scaffolds described above in Examples 1-2 were further assayed for their ability to reduce MMP activity as compared to non-coated collagen based scaffold such as the Biostep™ and Promogran™ products.

[2] = Release of alpha-lipoic acid from the coating on foam pads; type: physicochemical; details: gelatin coating on foam pads (FIG. 9)
Source text: Polyurethane open-cell reticulated foam pads were selected as the scaffold 140 and were immersed in a solution containing 1.5 wt % of alpha-lipoic acid and 4.5 wt % 225-bloom beef gelatin (and, where applicable, 0.3% EDTA). Gelatin was used as a biocompatible binding agent with good oxygen barrier and sustained release properties for alpha-lipoic acid as well as for its ability to act as a sacrificial substrate for surrounding gelatinases. Alpha-lipoic acid was pre-dissolved in ethanol and then mixed into the final solution. The foam pads were immersed for a sufficient amount of time to coat the pathways formed within the open-cell reticulated foam as described above with respect to the scaffold 140. After immersion, the foam pads were withdrawn, compressed to remove excess solution, and dried to a constant weight. In some cases, sodium benzoate was added to the formulation as a preservative. Dried foams comprised, by weight, 2% alpha-lipoic acid, 6% gelatin and, where applicable, 0.4% EDTA.
A National Diagnostics Hydrogen Peroxide Assay Kit was used to evaluate the antioxidant properties of foam pads and the formulated coated foam pads containing alpha-lipoic acid. Foam pads coated only with gelatin were used as controls. FIG. 7 is a graph showing the percentage of hydrogen peroxide reduction due to reaction with alpha-lipoic acid. […]

T1 sequence (P14780 107-444 limits assumed): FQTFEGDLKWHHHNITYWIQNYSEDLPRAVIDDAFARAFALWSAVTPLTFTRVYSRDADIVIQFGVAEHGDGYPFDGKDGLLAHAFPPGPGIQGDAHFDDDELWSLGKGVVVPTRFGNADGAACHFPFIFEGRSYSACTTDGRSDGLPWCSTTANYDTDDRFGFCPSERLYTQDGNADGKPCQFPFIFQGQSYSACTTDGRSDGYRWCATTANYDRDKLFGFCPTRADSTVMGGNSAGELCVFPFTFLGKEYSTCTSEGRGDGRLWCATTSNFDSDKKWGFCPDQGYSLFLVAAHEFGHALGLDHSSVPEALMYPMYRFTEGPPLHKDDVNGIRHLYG

Row | SMILES | % MMP-9 activity reduction ([1]; Table 1 (first of two separate experiments)) [%] | % MMP-9 activity reduction ([1]; Table 2 (second of two separate experiments)) [%] | time over which the remaining alpha-lipoic acid is released ([2]; after the first day) [days] | fraction of the total alpha-lipoic acid delivered by the coating ([2]; within the first day)
1 | COc1ccc(S(=O)(=O)N(CC(=O)NO)CC(C)C)cc1 [NNGH] | 90.2 | 103.8 |  | 
2 | O=C(O)CCCCC1CCSS1 (stereo not drawn) [alpha-lipoic acid] |  |  | 2 to 3 | approximately 70%
